Experimental data from PubChem BioAssay (NCI).
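1) Cells in 96-well plates. 2) Compound, 48 h, 5 concentrations. 3) Linear interpolation between surrounding doses. 4) Unreached endpoint = highest concentration. GI50 = concentration required for 50% inhibition of growth. TGI denotes the concentration required for complete inhibition of growth.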

Tests used:
Assay in all cases: NCI-60 cell line screen, 48 h
[1] = test system: KM20L2 colon
[2] = test system: HOP-18 NSCLC
[3] = test system: SNB-78 CNS
[4] = test system: MCF7 breast
[5] = test system: DMS 114 small cell lung
[6] = test system: DLD-1 colon
[7] = test system: DU-145 prostate
[8] = test system: HS 578T breast
[9] = test system: 786-0 renal
[10] = test system: MDA-MB-231 breast
[11] = test system: SR leukemia
[12] = test system: BT-549 breast
[13] = test system: MDA-MB-435

SMILES | TGI [1] | TGI [4] | TGI [5] | TGI [6] | TGI [7] | TGI [8] | TGI [9] | TGI [10] | TGI [11] | TGI [12] | TGI [13] | further results
Cc1nc2ccccc2c(=O)n1CC(=O)O | > 100 µM | > 100 µM | > 100 µM | > 100 µM | – | – | – | – | – | – | – | TGI [2]: > 100 µM; TGI [3]: > 100 µM
CCOc1ccc2c(ccc(/C=C\c3cc(C)c4cccnc4c3O)[n+]2C)c1 | 37 µM | – | – | 4.32 µM | 18.6 µM | > 100 µM | 29.3 µM | 0.632 µM | 5.73 µM | 38.1 µM | 13.3 µM | TGI [2]: 7.49 µM
CC(=O)O[C@H]1CC[C@@]2(C)C(=CC[C@@H]3[C@@H]2CC[C@]2(C)C(=N/O)/C(=C/c4ccc([N+](=O)[O-])cc4)C[C@@H]32)C1 | – | – | – | – | 31.4 µM | 8.46 µM | 27.3 µM | 50.1 µM | – | 14 µM | 29.3 µM | –
CC(C)=CC(=O)OC1C2C(C)C(=O)OC2C(O)C(C)C2C=CC(=O)C21C (stereo not given) | 7.76 µM | 11.1 µM | 7.19 µM | 3.9 µM | – | – | – | – | – | – | – | TGI [2]: 11.2 µM; TGI [3]: 9.88 µM
C[C@]12C=CC(=O)C=C1CC[C@@H]1[C@@H]2C(=O)C[C@@]2(C)[C@H]1CC[C@]2(O)C(=O)CO | – | > 100 µM | – | – | > 100 µM | > 100 µM | > 100 µM | > 100 µM | > 100 µM | > 100 µM | > 100 µM | –
COc1cc2c3c(n(CCN(C)C)c(=O)c2cc1OC)-c1cc2c(cc1C3=O)OCO2 | – | > 33.8 µM | – | – | > 22.5 µM | > 100 µM | > 100 µM | > 32.1 µM | – | > 100 µM | > 77 µM | GI50 [7]: 0.218 µM; GI50 [8]: > 84.9 µM; GI50 [4]: 0.297 µM; GI50 [12]: > 47.7 µM; GI50 [13]: 6.08 µM
Cn1cc(C[C@@H](N)C(=O)O)c2ccccc21 | – | > 100 µM | – | – | > 100 µM | > 100 µM | > 100 µM | > 100 µM | > 100 µM | > 100 µM | > 100 µM | GI50 [8]: > 100 µM
O=C(O)c1cc(=O)[nH]c(=S)[nH]1 | – | > 100 µM | – | – | > 100 µM | > 100 µM | > 100 µM | > 100 µM | – | > 100 µM | > 100 µM | –
CCN(CC)CCCC(Nc1c2ccc(Cl)cc2nc2ccc(OC)cc12)c1ccc(F)cc1 (stereo not given) | – | 3.62 µM | – | – | 10.4 µM | 4.17 µM | – | 3.08 µM | 5.88 µM | 26.4 µM | 3.2 µM | GI50 [7]: 3.23 µM; GI50 [8]: 1.69 µM; GI50 [10]: 1.47 µM; GI50 [11]: 2.19 µM; GI50 [4]: 1.64 µM; GI50 [12]: 12.8 µM; GI50 [13]: 1.73 µM
CN1C2C=C(c3ccccc3)CC1CC2 (stereo not given) | > 100 µM | – | – | > 100 µM | – | – | > 100 µM | – | > 100 µM | – | – | TGI [2]: > 100 µM
COc1c2c(cc3c(CCc4ccccc4)cc(=O)oc13)CCC(C)(C)O2 | > 100 µM | – | > 100 µM | > 100 µM | – | – | – | – | > 100 µM | – | – | –
CCCCN(CCCC)CCCCNc1c(C)cnc2cc(Cl)ccc12 | 36.7 µM | – | 56.9 µM | – | – | – | 32.1 µM | – | – | – | – | TGI [2]: > 100 µM; TGI [3]: > 100 µM
Cc1ccc(/C(=C/C=C(C#N)C#N)Sc2cc(Cl)ccc2Cl)cc1 | – | > 100 µM | – | – | 13.9 µM | 9.23 µM | 5.01 µM | 13 µM | – | – | 7.46 µM | –
CC(/C=C/c1ccc([N+](=O)[O-])o1)=N/N1CC(CN2CCOCC2)OC1=O (stereo not given) | – | 27 µM | – | – | 60.4 µM | > 100 µM | > 100 µM | > 100 µM | 50.4 µM | 24.2 µM | 42.2 µM | –
c1ccc2c(c1)nc1n2CSC1 | > 100 µM | – | > 100 µM | > 100 µM | – | – | – | – | – | – | – | TGI [2]: > 100 µM; TGI [3]: > 100 µM
CC(=O)[O-].CC(=O)[O-].[NH2-].[Pt+2].c1ccncc1 | – | 65.9 µM | – | – | 51.9 µM | > 100 µM | > 100 µM | > 100 µM | – | – | > 100 µM | GI50 [7]: 4.62 µM; GI50 [8]: 98.7 µM; GI50 [10]: > 100 µM; GI50 [4]: 19.4 µM; GI50 [13]: 53.2 µM
CN1CCN(Cc2ccc(NC(=O)c3ccc(C#N)c(C#Cc4cnc(N)c5ncccc45)c3)cc2C(F)(F)F)CC1 | – | – | – | – | – | – | – | – | – | 41.9 µM | – | GI50 [12]: 12.7 µM
CCOP(=O)(OCC)C(Cc1ccc(OC)c(OC)c1)N=C(c1ccccc1)c1ccccc1 (stereo not given) | – | 55.5 µM | – | – | > 100 µM | – | – | > 100 µM | 46.4 µM | > 100 µM | > 100 µM | –
O=C1CN2C(Cl)(Cl)C2(c2ccccc2)c2cc(Cl)ccc2N1CC(F)(F)F (stereo not given) | > 100 µM | – | 66.6 µM | 42.9 µM | – | – | – | – | 69.9 µM | – | – | –
[C-]#[O+].[Cl][Sn]([Cl])[Cl].[Cl][Sn]([Cl])[Cl].[Pt].c1ccncc1 | > 100 µM | > 100 µM | – | > 100 µM | – | – | – | – | – | – | – | GI50 [4]: > 100 µM
Cc1cc2c(cc1C)[n+](=O)c(C(=O)N1CCN(c3ccc([N+](=O)[O-])cc3)CC1)c(C)n2[O-] | – | > 100 µM | – | – | > 100 µM | > 100 µM | 34.8 µM | 55.5 µM | > 100 µM | 49.9 µM | > 100 µM | –
CC1=C[C@]2(CC(C)C3C(CC4(C)C5CCC6C(C)(C)C(=O)CC[C@@]67C[C@@]57CC[C@]34C)O2)OC1=O (stereo not given in full) | – | – | 77.1 µM | > 100 µM | – | – | – | – | > 100 µM | – | – | TGI [2]: > 100 µM; TGI [3]: 71.9 µM
O=C(Nc1ccc(Cl)cc1)/C(Cc1cccc[n+]1[O-])=N\Nc1ccc([N+](=O)[O-])cc1[N+](=O)[O-] | > 100 µM | – | > 100 µM | > 100 µM | – | – | > 100 µM | – | – | – | – | TGI [3]: > 100 µM
COc1cc(C(N)=O)cc(NC(=O)/C=C/c2ccccc2)c1OC | – | > 100 µM | – | – | > 100 µM | > 100 µM | > 100 µM | > 100 µM | > 100 µM | > 100 µM | > 100 µM | –
Cc1ccc(S(=O)(=O)Oc2cc(S(=O)(=O)O)cc3cc(S(=O)(=O)O)cc(N)c23)cc1 | – | > 100 µM | – | – | > 100 µM | > 100 µM | > 100 µM | > 100 µM | > 100 µM | > 100 µM | > 100 µM | –
CC1(C)CCc2cc3c(-c4ccccc4)cc(=O)oc3cc2O1 | > 100 µM | – | > 100 µM | > 100 µM | – | – | – | – | – | – | – | TGI [2]: > 100 µM; TGI [3]: > 100 µM
Cc1cccc2c(N)c3cccc(C(=O)NCCN(C)C)c3nc12 | – | – | – | – | 0.639 µM | – | – | 0.275 µM | 0.0347 µM | 4.16 µM | 0.321 µM | –
O=C1Nc2ccccc2Nc2nc3cccccc-3c21 | > 100 µM | – | > 100 µM | > 100 µM | – | – | > 100 µM | – | > 100 µM | – | – | TGI [3]: > 100 µM
CO/N=C1/c2sccc2[C@H](NC(=O)C(F)(F)F)[C@@H]1O | – | > 100 µM | – | – | > 100 µM | > 100 µM | – | > 100 µM | > 100 µM | > 100 µM | > 100 µM | –
